According to patent publication US8614237B2, “Benzofuran-4,5-diones as selective peptide deformylase inhibitors” (Sloan-Kettering Institute for Cancer Research, priority 2009, dated 2013):
Values after ≈ are worked out from the molar mass of the structure shown.

Legend:
EcPDF [1] = system: EcPDF
Method: Head of the field: EcPDF %I 100uM
(§2) Specificity profiling of the derivatives of benzofuran-4,5-diones.
Where the first naming reader finds the target: head: EcPDF %I 100uM

Jurkat cell line = assay: Cytotoxicity in vitro toward Jurkat cell line; assay type: cell-based; conditions: Homo sapiens, acute T-cell leukemia
Source text: (§1) The cell lines HL-60 (human acute promyelocytic leukemia), Jurkat (human acute T cell leukemia), Molt3 (acute lymphoblastic leukemia), CWR22 (prostate carcinoma), HEK293 (human embryonic kidney), K562 (human chronic myeloid leukemia lymphoblasts), Y79 (human retinoblastoma) were obtained from the ATCC, and cultured following ATCC recommendations. The cell line NCEB-1 (human non-hodgkin lymphoma) was obtained from Dr. O'Connor (Sloan-Kettering Institute). The cell line HL-60/RV+ (a P-glycoprotein-overexpressing multi-drug resistant HL-60 variant selected by continuous exposure to vincristine) was described elsewhere (Weisburg et al., J. Biol. Chem. 1999, 274, 10877-10888). The cell line ALL-3 (acute lymphoblastic leukemia isolated from a patient treated at MSKCC and characterized as Philadelphia chromosome positive) was obtained from Dr. Mark Frattini (MSKCC). The assay used for the cytotoxicity studies is based on the dye resazurin and commercially sold as Alamar Blue (O'Brien et al., Eur. J. Biochem. 2000, 267, 5421-5426). Cells were added in 45 μL medium to the pre-plated compounds in 5 μL of 1% DMSO (v/v). After incubation for 72 hours, 5 μL of Alamar Blue was added.

EcPDF [2] = system: EcPDF; remark: listed apart in the source
Method: Head of the field: EcPDF %I 10uM
as §2
Where the first naming reader finds the target: head: EcPDF %I 10uM

HsPDF [3] = molecular target: T1, HsPDF (Homo sapiens, UniProt Q9HBH1); assay: FP binding assay (fluorescence polarization, probe SKI 267088), specificity profiling and dose response; conditions: dose response, 12 point doubling dilutions, upper limit 100 μM
T1 construct: A 63 amino acid N-terminally truncated human peptide deformylase (HsPDF); 6His (C); made in house; host or cells: E. coli BL21 (DE3), co-transformed with the GroES/EL chaperone plasmid
T1 sequence (Q9HBH1 64-243 limits assumed): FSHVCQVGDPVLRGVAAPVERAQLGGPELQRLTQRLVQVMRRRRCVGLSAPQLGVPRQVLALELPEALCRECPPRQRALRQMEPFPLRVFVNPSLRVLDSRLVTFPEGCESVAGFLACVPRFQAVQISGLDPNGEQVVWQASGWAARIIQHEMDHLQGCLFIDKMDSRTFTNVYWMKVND
Method: Specificity profiling was performed on the newly synthesized benzofuran-4,5-diones using the aforementioned FP profiling method (Antczak et al., J. Biomol. Screen 2008, 13, 285-294).
Compounds or high/low controls were added to the wells at a volume of 2 μL. […] High controls consisted of 1% DMSO (v/v). MBP-HsPDF or the metalloprotease to be tested was diluted in the assay buffer (25 mM Hepes, 50 mM NaCl, 0.005% Tween 20, pH 7.5), and 10 μL where added to the 384-well microplates (Low Volume Round Bottom NBS Treated, Corning) to achieve a final concentration of 1 μM. After addition of MBP-HsPDF to the tested compounds, the 384-well microplates were preincubated for one hour at room temperature. Then 8 μL of the probe SKI 267088 in solution in assay buffer was added to the wells at a final concentration of 5 nM. After one hour incubation at room temperature, the fluorescence polarization was read using the Amersham LEADseeker™ Multimodality Imaging System equipped with Cy3 excitation/emission filters and Cy3 FP epi-mirror. Quench tests were performed in duplicate by measuring the fluorescence polarization of wells containing the probe, pre- and post-addition of the compounds at 100 μM.
In each assay, the signal inhibition induced by the compounds was expressed as a percentage compared to high and low controls located on the same plate, as defined as % Inhibition=(high control average−read value)/(high control average−low control average)×100. The dose response was assessed in duplicate and using 12 point doubling dilutions with 100 μM compound concentration as the upper limit. The dose response curve for each set of data was fitted separately, and the two IC50 values obtained were averaged.

Jurkat tumors = assay: In vivo study, mouse xenograft with Jurkat tumors; conditions: 5, 15 and 30 mg/kg i.p. twice a week for three weeks
Method: In this study, higher doses could be achieved by injecting the drug in a small volume (100 μL) of 100% DMSO (v/v). Three mice per group were treated at three doses: 5, 15 and 30 mg/kg. A control group of three mice was treated with the vehicle (100% DMSO v/v). Mice were treated i.p. twice a week for three weeks. Unfortunately, a large variability in the growth of the Jurkat tumors caused data interpretation to be difficult.

[4] = In vivo toxicity of benzofuran-4,5-diones; conditions: i.p. twice a day for four days, 1 to 10 mg/kg, monitored 14 days
Method: Lead compound SKC-BF-13 and another newly synthesized derivative SKC-BF-02 were selected in order to assess the in vivo toxicity of benzofuran-4,5-diones. Three mice per group were treated with BF-13 at three doses (i.e., 1, 5 and 10 mg/kg) or with SKC-BF-02 at two doses (i.e., 1 and 10 mg/kg). A control group of two mice were treated with the vehicle (i.e., 20% DMSO v/v). Mice were treated twice a day for four days via intraperitoneal administration. Their weight was monitored along with any other signs of toxicity for fourteen days.
ICR/SCID male mice about three weeks old were used in this study. Three mice per group were treated with BF-13 at three doses (i.e., 1, 5 and 10 mg/kg) or with SKC-BF-02 at two doses (i.e., 1 and 10 mg/kg). A control group of two mice were treated with the vehicle (20% DMSO v/v). Mice were treated twice a day for four days via intraperitoneal administration. Their weight was monitored as well as any other sign of toxicity for 14 days.
SKI 396848 (SKC-BF-12) and SKI 396840 (SKC-BF-02) were synthesized during the first round of exploratory chemistry to assess the in vivo toxicity of benzofuran-4,5-diones (as shown in FIG. 8). Three ICR/SCID male mice per group were treated with SKI 396848 at three doses: 1, 5 and 10 mg/kg or with SKI 396840 at two doses: 1 and 10 mg/kg. A control group of two mice was treated with the vehicle (20% DMSO v/v). Mice were treated twice a day for four days i.p. Their weight was monitored as well as any other sign of toxicity for 14 days. One treated mouse per group was evaluated by a pathologist.

MMP-1 = MMP-1 %I 100uM
Method: Table printed on a drawing sheet, Figure 5
Head of the field: MMP-1 %I 100uM
Footnotes: -26 124 % inhibition
The patent's description of the figure: FIG. 5.
Where the first naming reader finds the target: head: MMP-1 %I 100uM

[5] = system: panel of cancer cell lines; assay: Cytotoxicity assay (Alamar Blue), primary hits and first generation derivatives; assay type: cell-based, human; conditions: Homo sapiens; first generation, panel of nine cancer cell lines; SKC-BF-13: on four cell lines; read-out: cytotoxicity IC50, Alamar Blue viability assay
Method: Cytotoxicity assays were performed in order to profile the thirty-three newly synthesized benzofuran-4,5-dione derivatives on a panel of nine cancer cell lines. A heat map summarizes the calculated IC50s ([…]). Twelve out of thirteen derivatives potent toward HsPDF were also cytotoxic toward several cancer cell lines (FIG. 7).
as §1, with “Cells were added in 45 μL medium to the pre-plated compounds in 5 μL of 1% DMSO (v/v). After incubation for 72 hours, 5 μL of Alamar Blue was added.” left out

HsPDF [6] = molecular target: T2, HsPDF (Homo sapiens, UniProt Q9HBH1); assay: HsPDF IC50
T2 construct: A 63 amino acid N-terminally truncated human peptide deformylase (HsPDF); 6His (C); made in house; host or cells: E. coli BL21 (DE3), co-transformed with the GroES/EL chaperone plasmid
Source text: Table printed on a drawing sheet, Figure 7
Head of the field: HsPDF IC50
The patent's description of the figure: FIG. 7. Cytotoxicity profiling for the thirty-three (33) derivatives of benzofuran-4,5-diones toward […]. The IC50 in μM for each compound toward each cell line is summarized as a heat map.
Where the first naming reader finds the target: head: HsPDF IC50

ALL-3 cells = assay: In vivo efficacy, mouse xenograft model using ALL-3 cells; conditions: 1 and 3 mg/kg i.p. twice a week for two weeks
Method: The in vivo efficacy of SKI 396848 (SKC-BF-12) was assessed in a mouse xenograft model using ALL-3 cells isolated from a patient with acute lymphoblastic leukemia refractory to imatinib. Three mice per group were treated at two doses: 1 and 3 mg/kg. A control group of three mice was treated with the vehicle (20% DMSO v/v). Mice were treated twice a week for two weeks i.p. Their weight was monitored as well as any other sign of toxicity for 14 days. […] Nonetheless, the observed difference between the treated groups and the control group was significant, and our study provides a solid proof of concept for the use of benzofuran-4,5-dione based HsPDF inhibitors as novel antitumor agents in vivo.

ALL3 cells = assay: Cytotoxicity in vitro toward ALL3 cells; assay type: cell-based; conditions: Homo sapiens
Source text: as §1

[7] = system: panel of eight cancer cell lines; assay: Cytotoxicity profiling of 26 second generation derivatives (Alamar Blue viability assay, nuclei count); assay type: cell-based, human
Method: Cytotoxicity profiling for the 26 newly synthesized benzofuran-4,5-diones derivatives was performed on a panel of eight cancer cell lines.
The cell lines HL-60 (human acute promyelocytic leukemia), Jurkat (human acute T cell leukemia), Molt3 (acute lymphoblastic leukemia), CWR22 (prostate carcinoma), K562 (human chronic myeloid leukemia lymphoblasts), and Y79 (human retinoblastoma) were obtained from the ATCC, and cultured following ATCC recommendations. The cell line HL-60/RV+ (a P-glycoprotein-overexpressing multi-drug resistant HL-60 variant selected by continuous exposure to vincristine) was described elsewhere (Weisburg J H, Roepe P D, Dzekunov S, Scheinberg D A: Intracellular pH and multidrug resistance regulate complement-mediated cytotoxicity of nucleated human cells. J Biol Chem 1999; 274:10877-10888). The cell line ALL-3 (acute lymphoblastic leukemia isolated from a patient treated at MSKCC and characterized as Philadelphia chromosome positive) was obtained from Dr. Mark Frattini (MSKCC). The viability assay we used in this study is based on the dye resazurin and commercially sold as Alamar Blue (O'Brien J, Wilson I, Orton T, Pognan F: Investigation of the Alamar Blue (resazurin) fluorescent dye for the assessment of mammalian cell cytotoxicity. Eur J Biochem 2000; 267:5421-5426). Cells were added in 45 μL medium to the pre-plated compounds in 5 μL of 1% DMSO (v/v). After 72 h incubation was added 5 μL Alamar Blue. […] Plates were then fixed and nuclei were stained using Hoechst for the nuclear count proliferation assay. Imaging for Hoechst staining of nuclei count were acquired with an IN Cell Analyzer 2000 epifluorescence automated microscope ([…]) (GE Healthcare, Piscataway, N.J.) equipped with a 4× objective, using D360/40 excitation filter (360 nm excitation peak; +/−40 nm bandpass), HQ535/50 emission filter (535 nm emission peak; +/−50 nm bandpass) and Q505LP dichroic, and exposing fields for 200 milliseconds in the blue channel. Image analysis was conducted with the IN Cell Developer 1.7 software (GE Healthcare) using custom-developed analysis modules. The analysis module used for nuclei count performs object segmentation in the blue channel to automatically define and count the number of nuclei. Data is reported as the sum of imaged nuclei.
In addition of the Alamar Blue viability assay readout, for the adherent cell lines of this panel (CWR22 and Meso47) we performed a direct nuclei count to assess the effect of the novel derivatives on cell proliferation.

[8] = Aqueous solubility limit by laser nephelometry; assay type: physicochemical; conditions: aqueous solution (composition not stated), kinetic from dmso stock, upper limit 10 μM
Source text: We assessed the aqueous solubility limit for the 26 novel benzofuran-4,5-diones using laser nephelometry. […] Data were compared to standards of known turbidity to assess the solubility limit for each compound.

## COc1cc(C(=O)c2coc3c2C(=O)C(=O)C(Br)=C3Br)cc(OC)c1OC [SKC-BF-13, 6,7-Dibromo-3-(3,4,5-trimethoxy-benzoyl)-benzofuran-4,5-dione]
EcPDF [1]
  EcPDF %I 100uM: 32 %I
Jurkat cell line
  IC50: 3 µM
EcPDF [2]
  EcPDF %I 10uM: 32 %I
HsPDF [3]
  IC50: 5.2 µM
Jurkat tumors
  body weight of treated groups: no loss of weight
[4]
  signs of toxicity in vivo (weight and other signs): none of the treatments induced any sign of toxicity
MMP-1
  MMP-1 %I 100uM: 38 %I
[5]
  IC50: < 10 µM

## COc1ccc(C(=O)c2coc3c2C(=O)C(=O)C(Cl)=C3)cc1 [SKC-BF-04, 6-Chloro-3-(4-methoxybenzoyl)-benzofuran-4,5-dione]
EcPDF [2]
  EcPDF %I 10uM: -6 %I
HsPDF [6]
  IC50: 40 µM

## O=C1C(=O)c2c(C(=O)c3ccccc3)coc2C(Cl)=C1Cl [SKC-BF-09, 3-Benzoyl-6,7-dichloro-benzofuran-4,5-dione]
EcPDF [2]
  EcPDF %I 10uM: 43 %I
HsPDF [6]
  IC50: 45 µM

## COc1ccc(C(=O)c2coc3c2C(=O)C(=O)C(Br)=C3Br)cc1OC [SKC-BF-12, 6,7-Dibromo-3-(3,4-dimethoxy-benzoyl)-benzofuran-4,5-dione]
ALL-3 cells
  tumor progression in ALL-3 xenograft: only a slight delay in tumor progression
ALL3 cells
  IC50: 36 µM
EcPDF [2]
  EcPDF %I 10uM: 35 %I
[4]
  signs of toxicity in vivo (weight and other signs): None of the treatments were found to induce any signs of toxicity
MMP-1
  MMP-1 %I 100uM: 46 %I

## O=C1C(=O)c2c(C(=O)c3ccc(Cl)c(Cl)c3)coc2C(Cl)=C1Cl [SKI 417516, 6,7-dichloro-3-(3,4-dichlorobenzoyl)benzofuran-4,5-dione]
[7]
  activity against the cell lines of the panel, second generation: active against all cell lines of our panel except Meso47
[8]
  solubility: 5 µM (≈ 1.95 µg/mL)
